In ChEMBL document CHEMBL5230157, “The natural anthraquinone dye purpurin exerts antibacterial activity by perturbing the FtsZ assembly” (Bioorg Med Chem, 2021):

Molecular target: T1, Cell division protein FtsZ (Bacillus subtilis, UniProt A5Z1V5)
T1 sequence (A5Z1V5 whole entry): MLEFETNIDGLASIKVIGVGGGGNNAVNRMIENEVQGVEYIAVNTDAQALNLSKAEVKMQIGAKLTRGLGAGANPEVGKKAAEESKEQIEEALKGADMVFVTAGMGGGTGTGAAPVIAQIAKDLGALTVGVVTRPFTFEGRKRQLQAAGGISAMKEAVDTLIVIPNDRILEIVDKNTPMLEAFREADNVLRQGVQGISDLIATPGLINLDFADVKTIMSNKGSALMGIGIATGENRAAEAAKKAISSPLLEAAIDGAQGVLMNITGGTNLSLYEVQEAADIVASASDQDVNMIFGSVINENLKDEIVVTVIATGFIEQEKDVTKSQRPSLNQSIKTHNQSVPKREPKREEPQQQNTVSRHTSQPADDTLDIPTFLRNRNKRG
Test: Binding affinity to Bacillus subtilis FtsZ assessed as dissociation constant of intrinsic tryptophan quenching incubated for 30 mins by double reciprocal plot analysis

## CC1=CC(=O)c2c(O)cccc2C1=O [PLUMBAGIN]
  Kd: 15.8 µM
